# Values of other authors, collected in patent US20150133410A1, “TOPICAL OPHTHALMIC, OTIC, AND NASAL COMPOSITIONS OF CIPROFLOXACIN” (priority 2013, published 2015).
# Like-named read-outs stand apart in the source and are kept apart here.
# Details: aqueous solutions of about 0.2 to about 1 weight percent
smiles,measurement,setting,value
O=C(O)c1cn(C2CC2)c2cc(N3CCNCC3)c(F)cc2c1=O [ciprofloxacin],pH above which crystalline precipitation of ciprofloxacin occurs,5° C.,above 5
same,pH above which crystalline precipitation of ciprofloxacin occurs,room temperature,above 5.5
